The source of these data is paper PMC12774368, “Cyclic-di-GMP controls Type III effector export and symptom development in Pseudomonas syringae infections via the export ATPase HrcN” (PLOS Pathogens, 2025).

The assay has as its target T1, HrcN (Δ1-18 WT HrcN) (Pseudomonas syringae group genomosp. 3, UniProt Q887B5).
T1 construct: gene sctN; N-terminal residues 1-18 removed, His6-tagged (tag not reported cut), pETM11, expressed in E. coli BL21(DE3) pLysS, HisTrap purified
The assay is classed as binding. The note with it: 1 mM unlabelled competitor, 1.25 µM HrcN, 0.6 µM 2'-Fluo-AHC-c-diGMP; pH 7.5, 10 mM MgCl2.

Each structure is given as a SMILES string.

`Nc1nc2c(ncn2[C@@H]2O[C@@H]3COP(=O)(O)O[C@H]4[C@@H](O)[C@H](n5cnc6c(=O)[nH]c(N)nc65)O[C@@H]4COP(=O)(O)O[C@H]3[C@H]2O)c(=O)[nH]1` [cyclic-di-GMP]: the “competition DRaCALA against fluorescent c-di-GMP” value is “fluorescent cdG binding could be disrupted by the addition of unlabelled cdG”.
